{
  "source": "patent EP1482971B1",
  "about": "“STRATEGY FOR RETROVIRAL IMMUNOTHERAPY” (priority 2002, dated 2003)",
  "key": {"[1]": {"tested_on": "MAIDS virus", "assay": "Spleen cell transfer into Vb-treated MAIDS infected mice", "assay_type": "in vivo", "excerpt": "The experiments illustrated in Figure 7 were designed to determine if a single dose of Vb, administered at 14 days pi, is eliminating a population of expanding CD4^+ regulator T cells and thereby releasing effector cells from down-regulation and clearing the host of the MAIDS virus.\nMice were infected with MAIDS, received day 14 pi Vb treatment and then received an adoptive transfer of ∼10^7 spleen cells from donor mice prepared as outlined in Figure 7. For each experiment [designated (I), (II) and (III)] groups consisted of 7 recipient mice and 9 donor mice. Mice in Group I received whole spleens from infected mice that had not received any Vb treatment. Mice in Group II received whole spleen cell preparations, from infected mice, that had been depleted of CD4^+ cells using a FACS cell sorter after staining with fluorochrome-labeled anti-CD4 monoclonal antibody. […] Mice in Group III received whole spleens from infected donor mice that also received Vb treatment on day 14 pi."}, "[2]": {"tested_on": "CD4^+ T cells and CD25^+CD4^+ T cells", "assay": "Direct FACS analysis of spleen cells following Vb therapy on day 14 post infection", "assay_type": "in vivo, mice", "details": "spleens collected 48 hours post Vb treatment", "procedure": "FACS analysis of CD4^+ and CD8^+ T cells prepared from spleens of mice treated with Vb on Day 14 pi was performed (Figure 6). CD25^+CD4^+ T cells were also examined as they have recently been identified as having an important regulatory function in mouse models of autoimmune disease and tumour immunology (Takahashi et al., 1998; Shimizu et al., 1999). It is possible that these cells may play a role in the regulation of the immune response to MAIDS. Day 14 pi and uninfected control mice were given Vb therapy and the spleens collected at 48 hours post Vb treatment."}, "[3]": {"tested_on": "murine T cell lymphoma", "details": "cited from earlier work"}, "[4]": {"tested_on": "MAIDS virus", "assay": "Rechallenge with MAIDS virus following protective vinblastine therapy", "assay_type": "in vivo, mice", "details": "Vb at day 14 pi, rechallenged at 3 or 8 weeks post Vb treatment; assessed at 20 weeks", "excerpt": "To determine if mice protected from MAIDS by the day 14 pi Vb treatment develop an immune response which would then protect them from a subsequent rechallenge with the MAIDS virus groups of mice, given the Vb therapy at day 14 pi, were rechallenged with the MAIDS virus at 3 or 8 weeks post Vb treatment. […] This is not an unexpected result as the dominant immunosuppression by the regulator population of cells would have been restored as a consequence of the immune effector response to the second (untreated) infection."}, "[5]": {"tested_on": "LP-BM5 murine leukemia virus (MuLV)", "assay": "MAIDS development after a single dose of vinblastine at different times post infection (spleen weight, histology, FACS analysis)", "assay_type": "in vivo, C57BL/6 mice", "excerpt": "A murine AIDS (MAIDS) pathology induced by LP-BM5 murine leukemia virus (MuLV) in susceptible mice is an effective tool to investigate mechanisms of retrovirus-induced immunodeficiency. […] Infection of a susceptible strain such as C57BL/6 mice with LP-BM5 leads to chronic splenomegaly, hypergammaglobulinaemia and development of immunodeficiency in both T and B cells. In vitro, there is a progressive impairment in the responsiveness of T-cells and B-cells to mitogenic or specific antigenic stimuli. In vivo, infected mice become increasingly susceptible to challenge with a variety of opportunistic organisms and can develop B-cell lymphoma. Deaths are first observed at 8-10 weeks post-infection (pi), and all mice die within 24 weeks (Figure 1). These alterations in immune function reflect complex changes in the phenotype and function of all components of the immune network.\nThe treatment with a single dose of the anti-mitotic agent vinblastine (Vb) at different times pi is able to prevent the development/progression of MAIDS. […] Clearly, the Vb treatment is remarkably therapeutic when administered at 6 hr or 14 days pi with 100% (10/10) and 74% (20/27) of mice, respectively, showing no signs of MAIDS development at 10 weeks pi (as determined by spleen weight, histology and FACS analysis). […] Additional experiments have provided results of 100% of mice having no signs of MAIDS development at least 12 months after Vb treatment 14 days pi (data not shown). Although not as pronounced as the protection seen after day 14 treatment, moderate protection from MAIDS development was still observed. […] The total protection from MAIDS development seen in mice given Vb at 6 hrs pi is not unexpected as the virus replicates in actively replicating cells which are the target of the anti-mitotic drug thus any cells infected with the virus are killed by the Vb preventing the virus from rapidly establishing an infection in the host. However, the highly protective effect observed after a single treatment with Vb at 14 days pi is quite remarkable as, by this stage, the viral infection is well established and the early disease processes are well underway. We propose that this highly therapeutic effect is due to the Vb targeting a particular subset of immune regulator cells during their expansion phase and thereby altering the immune response to the viral infection. […] This leads to long term disease free survival for many months post-infection and treatment.\nSpleens from the Day 14 pi Vb treated mice as well as infected and uninfected control mice were weighed and examined histologically. The splenic architecture of all MAIDS infected mice was profoundly disorganised as previously reported (Hartley et al., 1989)."}, "[6]": {"tested_on": "MAIDS virus", "assay": "Adoptive transfer of CD4+CD25+/- cells into MAIDS infected day 14 Vinblastine treated mice", "assay_type": "in vivo", "details": "MAIDS-infected day 14 Vb-treated recipients given CD4+CD25+ or CD4+CD25- cells from uninfected donors", "excerpt": "An adoptive transfer experiment was designed to directly test the hypothesis that CD4+CD25+ T cells are functioning as the regulator cells in the murine AIDS model. The same approach used to determine that the regulator cells are CD4+ T cells was used to test whether the CD4+CD25+ subset are the target of day 14 Vinblastine treatment. […] 2.0x10^6 cells of the regulator CD4+CD25+ phenotype were purified from single cell suspensions of donor spleens using MACS beads (Miltenyi Biotec) using two positive selection steps. The cells were then tested for purity by flow cytometry (both CD4+CD25+ and CD4+CD25- fractions were of > 90 % purity) and viability using trypan blue exclusion prior to transfer into uninfected (control) and MAIDS infected day 14 Vinblastine treated mice. CD4+CD25- cells were also transferred to allow that the regulator cells may not present in the CD25+ fraction and also to allow for the possibility that these putative regulator cells may lose CD25 expression as they expand and become activated as was reported by Gavin et al., 2002.\nMice receiving adoptive transfer of cells were either uninfected (control) or MAIDS infected and day 14 Vinblastine treated to examine whether the transfer of cells would result in disease progression. […] Disease progression was assessed by spleen weight at 10 weeks post MAIDS infection. […]"}},
  "note": "Where two headings read alike, the source gives them in different places.",
  "data": [
    {"smiles": "CC[C@]1(O)C[C@@H]2CN(CCc3c([nH]c4ccccc34)[C@@](C(=O)OC)(c3cc4c(cc3OC)N(C)[C@H]3[C@@](O)(C(=O)OC)[C@H](OC(C)=O)[C@]5(CC)C=CCN6CC[C@]43[C@@H]65)C2)C1", "note": "[Vb, vinblastine]", "values": [
      {"measurement": "protective effect of Vb against MAIDS development after spleen cell transfer", "setting": "[1]; Group I: day 14 pi Vb, then ~10^7 whole spleen cells from MAIDS infected donors without Vb", "result": "completely prevented Vb from protecting mice from MAIDS development"},
      {"measurement": "protective effect of Vb against MAIDS development after spleen cell transfer", "setting": "[1]; Group II: donor spleen cells depleted of CD4^+ cells by FACS sorting before transfer", "result": "the protective effect of Vb was not overcome"},
      {"measurement": "protective effect of Vb against MAIDS development after spleen cell transfer", "setting": "[1]; Group III: spleen cells from MAIDS infected donors also given day 14 Vb", "result": "fully protected from MAIDS development"},
      {"measurement": "effect on spleen cell subsets", "setting": "[2]; Vb at day 14 pi and in uninfected controls", "result": "all cell subsets are reduced"},
      {"measurement": "cell subsets preferentially targeted in MAIDS infected mice (uninfected to infected ratios)", "setting": "[2]; Vb at day 14 pi", "result": "CD4^+ T cells and CD25^+CD4^+ T cells that are preferentially targeted"},
      {"measurement": "effect on tumour", "setting": "[3]; single dose at day 10 following tumour inoculation", "result": "enhancement"},
      {"measurement": "effect on tumour", "setting": "[3]; single dose at days 4, 6, 13 and 15 following tumour inoculation", "result": "regression"},
      {"measurement": "protection from viral rechallenge", "setting": "[4]", "result": "not protected from viral rechallenge"},
      {"measurement": "mice protected from any splenomegaly at 20 weeks pi", "setting": "[5]; Vb at day 14 pi, 4/5 mice", "result": 80, "unit": "%"},
      {"measurement": "mice having no signs of MAIDS development at least 12 months after Vb treatment", "setting": "[5]; Vb treatment 14 days pi, additional experiments, data not shown", "result": 100, "unit": "%"},
      {"measurement": "cellular proportions (CD4^+, CD8^+ and B cells) and distributions of spleen cells by FACS analysis", "setting": "[5]; day 14 pi Vb treated mice at 10 weeks pi, preliminary, data not shown", "result": "like those observed in normal uninfected mice"},
      {"measurement": "splenic architecture (spleen histology)", "setting": "[5]; day 14 pi Vb treated mice with normal spleen weights (below 0.25g), 10 weeks pi", "result": "indistinguishable from that of uninfected control mice"},
      {"measurement": "mice showing no signs of MAIDS development at 10 weeks pi", "setting": "[5]; single 6mg/kg i.p. dose given at 6 hr pi, 10/10 mice, by spleen weight, histology and FACS analysis", "result": 100, "unit": "%"},
      {"measurement": "mice with protective effect (no signs of MAIDS development at 10 weeks pi)", "setting": "[5]; single 6mg/kg i.p. dose given at 6 days pi, 6/13 mice", "result": 46, "unit": "%"},
      {"measurement": "mice showing no signs of MAIDS development at 10 weeks pi", "setting": "[5]; single 6mg/kg i.p. dose given at 14 days pi, 20/27 mice", "result": 74, "unit": "%"},
      {"measurement": "protection against MAIDS development", "setting": "[5]; single 6mg/kg i.p. dose given at day 2 pi", "result": "no protection against MAIDS development"},
      {"measurement": "protection against MAIDS development", "setting": "[5]; single 6mg/kg i.p. dose given at day 7 pi", "result": "no protection against MAIDS development"},
      {"measurement": "disease progression (spleen weight at 10 weeks post MAIDS infection) after adoptive cell transfer", "setting": "[6]", "result": "disease progression was readily apparent"}
    ]}
  ]
}
